# Laboratory results from patent publication US12065468B2, “Heme-binding small peptide” (priority 2021, dated 2024).
# “Also recorded” adds a separate entry of the source.
# Test: UV-Vis spectroscopy / colour change on heme addition
# Format: binding
# Protocol: Heme preparation: Hemin solutions were always prepared in 0.1 M NaOH and used within 30 min of preparation. 1:1000 and 1:500 dilution of the stock solution was made and stock concentration was measured by pyridine hemochrome assay as described previously^85 by measuring the absorption at 557 nm using the extinction coefficient of pyridine hemochromogen (34.7 mM^−1 cm^−1).
# UV-VIS spectroscopy: All absorption spectra were collected in a Tecan Spark™ 10 M microplate reader using black polystyrene 96-well plates. Absorbance from 300 nm to 700 nm was recorded with a 5 nm interval after an initial shaking at 100 rpm for 15 secs. Heme binding to synthesized peptide: Water (pH 7.4) was used in all reactions and was first added to the wells. Peptides solubilized in water were added and then heme solubilized in 0.1 M NaOH was added, mixed thoroughly and measurements were taken immediately. Peptide and heme volume were kept to a maximum of 5 ul in volume. For all the absorption curves (except Extended FIG. 3a) […] was used. The same was also repeated with 0.1 M Tris buffer (pH 7.4) as a base buffer instead of water.
sequence,measurement,setting,value
RNGCIVDPRCPYQQCRRPLYCRRR [NCR247],"heme binding (absorption peaks 366 nm, ~450 nm; colour change)","heme added to peptide, ferric heme",bound within seconds; also recorded: binds heme
same,binding of ferrous heme,sodium dithionite-reduced Fe(II) heme,binds sodium dithionite-reduced Fe(II) ferrous heme
